From patent publication US10206394B2, “Herbicidal compounds” (Syngenta Participations AG, priority 2014, dated 2019)
Like-named read-outs stand apart in the source and are kept apart here.

Legend:
Assay in all cases: Glasshouse assay for herbicidal activity (pre- and post-emergence), percentage phytotoxicity
Type in all cases: in vivo
[1] = test system: Lolium perenne (LOLPE); details: Lolium perenne, 250 g/ha, visual assessment (100%=total damage, 0%=no damage)
Procedure, shortened: (§1)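 Seeds were sown in standard soil in pots and grown one day (pre-emergence) or about 12 days (post-emergence) before herbicide application. Plants were kept at 24/18 °C (warm-climate) or 20/16 °C (cool-climate) day/night, 16 h light, 65% humidity, watered twice daily, and damage was scored visually at 15 DAA (POST) or 20 DAA (PRE).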

[2] = test system: Avena fatua (AVEFA); details: Avena fatua, 250 g/ha, visual assessment (100%=total damage, 0%=no damage)
Procedure, shortened: as §1

[3] = test system: Echinochloa crus-galli (ECHCG); details: Echinochloa crus-galli, 250 g/ha, visual assessment (100%=total damage, 0%=no damage)
Procedure, shortened: as §1

[4] = test system: Alopecurus myosuroides (ALOMY); details: Alopecurus myosuroides, 250 g/ha, visual assessment (100%=total damage, 0%=no damage)
Procedure, shortened: as §1

[5] = post-emergence, 360 h, post-emergence, 15 DAA, read-out: Post-emergence herbicidal activity (percentage phytotoxicity) LOLPE POST
[6] = pre-emergence, 480 h, pre-emergence, 20 DAA, read-out: Pre-emergence herbicidal activity (percentage phytotoxicity) LOLPE PRE
[7] = post-emergence, 360 h, post-emergence, 15 DAA, read-out: Post-emergence herbicidal activity (percentage phytotoxicity) AVEFA POST
[8] = pre-emergence, 480 h, pre-emergence, 20 DAA, read-out: Pre-emergence herbicidal activity (percentage phytotoxicity) AVEFA PRE
[9] = post-emergence, 360 h, post-emergence, 15 DAA, read-out: Post-emergence herbicidal activity (percentage phytotoxicity) ECHCG POST
[10] = pre-emergence, 480 h, pre-emergence, 20 DAA, read-out: Pre-emergence herbicidal activity (percentage phytotoxicity) ECHCG PRE
[11] = post-emergence, 360 h, post-emergence, 15 DAA, read-out: Post-emergence herbicidal activity (percentage phytotoxicity) ALOMY POST
[12] = pre-emergence, 480 h, pre-emergence, 20 DAA, read-out: Pre-emergence herbicidal activity (percentage phytotoxicity) ALOMY PRE

| Structure (SMILES) | pest or weed control at 250 g/ha [1, 5] [%] | pest or weed control at 250 g/ha [1, 6] [%] | pest or weed control at 250 g/ha [2, 7] [%] | pest or weed control at 250 g/ha [2, 8] [%] | pest or weed control at 250 g/ha [3, 9] [%] | pest or weed control at 250 g/ha [3, 10] [%] | pest or weed control at 250 g/ha [4, 11] [%] | pest or weed control at 250 g/ha [4, 12] [%] |
| --- | --- | --- | --- | --- | --- | --- | --- | --- |
| Cc1cc(C)c(C2C(=O)CC(CC(=O)NC/C=C/Br)C2=O)c(C)c1 (stereo not drawn) [Compound B115] | 100 | 100 | 80 | 50 | 90 | 100 | 80 | 80 |
| C=CCNC(=O)CC1CC(=O)C(c2c(C)cc(-c3ncc(Cl)cc3F)cc2C)C1=O (stereo not drawn) [Compound B116] | 100 | 100 | 100 | 90 | 100 | 100 | 100 | 100 |
| C=CCNC(=O)CC1CC(=O)C(c2c(C)cc(Br)cc2C)C1=O (stereo not drawn) [Compound B117] | 70 | 70 | 70 | 20 | 70 | 70 | 80 | 70 |
| Cc1cc(-c2ncc(Cl)cc2F)cc(C)c1C1C(=O)CC(CC(=O)NC(C)C)C1=O (stereo not drawn) [Compound B118] | 100 | 100 | 100 | 90 | 100 | 100 | 100 | 100 |
| CCC(C)NC(=O)CC1CC(=O)C(c2c(C)cc(-c3ncc(Cl)cc3F)cc2C)C1=O (stereo not drawn) [Compound B119] | 100 | 100 | 100 | 90 | 100 | 100 | 100 | 100 |
| CCC(C)NC(=O)CC1CC(=O)C(c2c(C)cc(Br)cc2C)C1=O (stereo not drawn) [Compound B120] | 90 | 90 | 90 | 70 | 80 | 80 | 80 | 80 |
| COCC(C)NC(=O)CC1CC(=O)C(c2c(C)cc(-c3ncc(Cl)cc3F)cc2C)C1=O (stereo not drawn) [Compound B121] | 100 | 100 | 100 | 90 | 100 | 100 | 100 | 100 |
| Cc1cc(Br)cc(C)c1C1C(=O)CC(CC(=O)NCC2CC2)C1=O (stereo not drawn) [Compound B122] | 100 | 90 | 100 | 80 | 100 | 70 | 100 | 80 |
| Cc1cc(-c2ncc(Cl)cc2F)cc(C)c1C1C(=O)CC(CC(=O)NCC2CC2)C1=O (stereo not drawn) [Compound B123] | 100 | 100 | 100 | 90 | 100 | 100 | 100 | 100 |
| Cc1cc(-c2ncc(Cl)cc2F)cc(C)c1C1C(=O)CC(CC(=O)NCC(C)C)C1=O (stereo not drawn) [Compound B124] | 100 | 100 | 100 | 100 | 100 | 100 | 100 | 90 |
| Cc1cc(-c2ncc(Cl)cc2F)cc(C)c1C1C(=O)CC(CC(=O)NC2CCCC2)C1=O (stereo not drawn) [Compound B125] | 100 | 100 | 100 | 40 | 100 | 100 | 90 | 80 |
| C#CC(C)(C)NC(=O)CC1CC(=O)C(c2c(C)cc(-c3ncc(Cl)cc3F)cc2C)C1=O (stereo not drawn) [Compound B126] | 100 | 100 | 100 | 90 | 100 | 100 | 100 | 100 |
| C#CC(C)(C)NC(=O)CC1CC(=O)C(c2c(C)cc(Br)cc2C)C1=O (stereo not drawn) [Compound B127] | 90 | 70 | 100 | 80 | 100 | 70 | 90 | 90 |
| COCCCNC(=O)CC1CC(=O)C(c2c(C)cc(-c3ncc(Cl)cc3F)cc2C)C1=O (stereo not drawn) [Compound B128] | 100 | 100 | 100 | 100 | 100 | 100 | 100 | 100 |
| Cc1cc(-c2ncc(Cl)cc2F)cc(C)c1C1C(=O)CC(CC(=O)NCc2cccc(F)c2)C1=O (stereo not drawn) [Compound B129] | 100 | 90 | 100 | 50 | 100 | 70 | 100 | 90 |
| Cc1cc(Br)cc(C)c1C1C(=O)CC(CC(=O)NCc2cccc(F)c2)C1=O (stereo not drawn) [Compound B130] | 100 | 80 | 90 | 40 | 90 | 70 | 90 | 80 |
| COc1cccc(CNC(=O)CC2CC(=O)C(c3c(C)cc(-c4ncc(Cl)cc4F)cc3C)C2=O)c1 (stereo not drawn) [Compound B131] | 90 | 80 | 100 | 30 | 100 | 90 | 90 | 80 |
| COc1cccc(CNC(=O)CC2CC(=O)C(c3c(C)cc(Br)cc3C)C2=O)c1 (stereo not drawn) [Compound B132] | 70 | 80 | 20 | 30 | 80 | 20 | 60 | 80 |
| C=C(Cl)CNC(=O)CC1CC(=O)C(c2c(C)cc(C)cc2C)C1=O (stereo not drawn) [Compound B133] | 90 | 100 | 60 | 0 | 50 | 80 | 50 | 80 |
| COCC(C)NC(=O)CC1CC(=O)C(c2c(C)cc(Br)cc2C)C1=O (stereo not drawn) [Compound B134] | 80 | 80 | 90 | 70 | 80 | 70 | 90 | 90 |
| CCc1cc(-n2cc(Cl)cn2)cc(C)c1C1C(=O)CC(CC(=O)NC(C)(C)C)C1=O (stereo not drawn) [Compound B135] | 100 | 100 | 100 | 90 | 100 | 100 | 100 | 100 |
